According to ChEMBL document CHEMBL4765241, “Identification and Preclinical Pharmacology of ((1 R,3 S)-1-Amino-3-(( S)-6-(2-methoxyphenethyl)-5,6,7,8-tetrahydronaphthalen-2-yl)cyclopentyl)methanol (BMS-986166): A Differentiated Sphingosine-1-phosphate Receptor 1 (S1P) Modulator Advanced into Clinical Trials” (J Med Chem, 2019):

How the values were obtained:
[1] = Drug metabolism in pH 7.4 Tris-HCl buffer assessed as amount of phosphate ester metabolite formation at […] in presence of sphingosine kinase 1,2 and Mg-ATP incubated for 30 mins by TLC based analysis relative to fingolimod
Mus musculus [2] = assay: Reduction in circulating lymphocytes in Balb/c mouse blood at 30 mg/kg, po measured at 4 hrs by hematology analyzer based analysis; assay type: functional; set-up: scale not given: the % may be the effect or the level left; conditions: 30 mg/kg, 4 h
Mus musculus [3] = assay: Reduction in circulating lymphocytes in Balb/c mouse blood at 1 mg/kg, po measured at 4 hrs by hematology analyzer based analysis; assay type: functional; set-up: scale not given: the % may be the effect or the level left
Mus musculus [4] = assay: Reduction in circulating lymphocytes in Balb/c mouse blood at 30 mg/kg, po measured at 24 hrs by hematology analyzer based analysis; assay type: functional; set-up: scale not given: the % may be the effect or the level left; conditions: 30 mg/kg, 24 h
Mus musculus [5] = assay: Reduction in circulating lymphocytes in Balb/c mouse blood at 1 mg/kg, po measured at 24 hrs by hematology analyzer based analysis; assay type: functional; set-up: scale not given: the % may be the effect or the level left; conditions: 1 mg/kg, 24 h
[6] = Drug metabolism in Balb/c mouse blood assessed as concentration of parent compound at 30 mg/kg, po measured at 4 hrs by LC-MS/MS analysis; assay type: ADME, organism-based; conditions: read-out: Ct
[7] = Drug metabolism in Balb/c mouse blood assessed as concentration of parent compound at 1 mg/kg, po measured at 4 hrs by LC-MS/MS analysis; assay type: ADME, organism-based; conditions: in vivo, 1 mg/kg, 4 h, 1 mg/kg, 4 h, read-out: Ct
[8] = Drug metabolism in Balb/c mouse blood assessed as phosphate ester metabolite formation at 30 mg/kg, po measured at 4 hrs by LC-MS/MS analysis; assay type: ADME, organism-based; conditions: in vivo
[9] = Drug metabolism in Balb/c mouse blood assessed as concentration of phosphate ester metabolite formation at 1 mg/kg, po measured at 4 hrs by LC-MS/MS analysis; assay type: ADME, organism-based; conditions: in vivo, BLD = below limit of detection
[10] = Drug metabolism in Balb/c mouse blood assessed as concentration of parent compound at 30 mg/kg, po measured at 24 hrs by LC-MS/MS analysis; assay type: ADME, organism-based; conditions: in vivo, 30 mg/kg, 24 h, 30 mg/kg, 24 h, read-out: Ct
[11] = Drug metabolism in Balb/c mouse blood assessed as concentration of parent compound at 1 mg/kg, po measured at 24 hrs by LC-MS/MS analysis; assay type: ADME, organism-based; conditions: read-out: Ct
[12] = Drug metabolism in Balb/c mouse blood assessed as concentration of phosphate ester metabolite formation at 30 mg/kg, po measured at 24 hrs by LC-MS/MS analysis; assay type: ADME, organism-based; conditions: in vivo
[13] = Drug metabolism in Balb/c mouse blood assessed as concentration of phosphate ester metabolite formation at 1 mg/kg, po measured at 24 hrs by LC-MS/MS analysis; assay type: ADME, organism-based; conditions: in vivo, BLD = below limit of detection
[14] = Ratio of drug metabolism in Balb/c mouse blood assessed as phosphate ester metabolite to parent drug at 30 mg/kg, po measured at 24 hrs by LC-MS/MS analysis; assay type: ADME, organism-based; conditions: in vivo
Rattus norvegicus [15] = assay: Reduction in circulating lymphocytes in Lewis rat blood at 2 mg/kg, po measured at 4 hrs by hematology analyzer based analysis; assay type: functional; set-up: scale not given: the % may be the effect or the level left
[16] = Drug metabolism in Lewis rat blood assessed as concentration of parent compound at 2 mg/kg, po measured at 4 hrs by LC-MS/MS analysis; assay type: ADME, organism-based; conditions: read-out: Ct
Rattus norvegicus [17] = assay: Reduction in circulating lymphocytes in Lewis rat blood at 2 mg/kg, po measured at 24 hrs by hematology analyzer based analysis; assay type: functional; set-up: scale not given: the % may be the effect or the level left; conditions: 2 mg/kg, 24 h
[18] = Drug metabolism in Lewis rat blood assessed as concentration of parent compound at 2 mg/kg, po measured at 24 hrs by LC-MS/MS analysis; assay type: ADME, organism-based; conditions: read-out: Ct
[19] = Half-life in Lewis rat at 2 mg/kg, po measured over 72 hrs by LC-MS/MS analysis; assay type: ADME, organism-based; conditions: in vivo
[20] = Ratio of drug metabolism in Lewis rat blood assessed as phosphate ester metabolite to parent drug at 2 mg/kg, po measured at 24 hrs by LC-MS/MS analysis; assay type: ADME, organism-based; conditions: in vivo
Rattus norvegicus [21] = assay: Drug metabolism in Lewis rat blood assessed as concentration of phosphate ester metabolite formation at 2 mg/kg, po measured at 4 hrs by LC-MS/MS analysis; conditions: in vivo

Cn1cncc1CCC1CCc2cc([C@H]3CC[C@](N)(CO)C3)ccc2C1 (stereo partly drawn)
Drug metabolism [1]: 5%

N[C@]1(CO)CC[C@H](c2ccc3c(c2)CC[C@@H](CCc2ccccn2)C3)C1
Drug metabolism [1]: 4%

N[C@]1(CO)CC[C@H](c2ccc3c(c2)CC[C@@H](CCc2cccnc2)C3)C1
Drug metabolism [1]: 3%

N[C@]1(CO)CC[C@H](c2ccc3c(c2)CC[C@@H](CCc2ncccn2)C3)C1
Drug metabolism [1]: 4%

N[C@]1(CO)CC[C@H](c2ccc3c(c2)CC[C@H](CCc2ccccn2)C3)C1
Drug metabolism [1]: 1.8%

N[C@]1(CO)CC[C@H](c2ccc3c(c2)CC[C@H](CCc2cccnc2)C3)C1
Drug metabolism [1]: 24%

N[C@]1(CO)CC[C@H](c2ccc3c(c2)CC[C@H](CCc2ncccn2)C3)C1
Drug metabolism [1]: 6%

N[C@]1(CO)CC[C@H](c2ccc3c(c2)CCC(CCc2ccncc2)C3)C1 (single isomer, unassigned)
Drug metabolism [1]: 0%

N[C@]1(CO)CC[C@H](c2ccc3c(c2)CCC(c2ccccc2)C3)C1 (stereo in doubt; 8a)
Activity (Mus musculus [2]): 67% | Activity (Mus musculus [3]): <10% | Activity (Mus musculus [4]): 88% | Activity (Mus musculus [5]): <10% | concentration at 4 h ([6]; Balb/c, blood): 1500 nM | concentration [7]: 44 nM | Drug metabolism [8]: 43 nM | Drug metabolism [9]: Bld | concentration [10]: 760 nM | concentration at 24 h ([11]; Balb/c, blood): 27 nM | Drug metabolism [12]: 110 nM | Drug metabolism [13]: Bld | Ratio [14]: 0.14

N[C@]1(CO)CC[C@H](c2ccc3c(c2)CCC(c2ccccc2)C3)C1 (stereo in doubt; 8b)
Activity (Mus musculus [2]): 72% | Activity (Mus musculus [4]): 84% | Activity (Mus musculus [5]): 36% | concentration ([6]; in vivo, 30 mg/kg, 4 h, 30 mg/kg, 4 h): 750 nM | concentration [7]: 16 nM | Drug metabolism [8]: 36 nM | concentration [10]: 300 nM | concentration ([11]; in vivo, 1 mg/kg, 24 h, 1 mg/kg, 24 h): 16 nM | Drug metabolism [12]: 49 nM | Ratio [14]: 0.16

COc1cccc(CC2CCc3cc([C@H]4CC[C@](N)(CO)C4)ccc3C2)c1 (stereo in doubt; 12a)
Activity (Rattus norvegicus [15]; 2 mg/kg, 4 h): 30% | concentration at 4 h [16]: 50 nM | Activity (Rattus norvegicus [17]): 73% | concentration at 24 h [18]: 20 nM | half-life [19]: 15 h | Ratio [20]: 1 | Drug metabolism (Rattus norvegicus [21]): 10 nM

COc1cccc(CC2CCc3cc([C@H]4CC[C@](N)(CO)C4)ccc3C2)c1 (stereo in doubt; 12b)
Activity (Rattus norvegicus [15]; 2 mg/kg, 4 h): <10% | Activity (Rattus norvegicus [17]): 45%

COc1ccc(CC2CCc3cc([C@H]4CC[C@](N)(CO)C4)ccc3C2)cc1 (stereo in doubt; 13a)
Activity (Rattus norvegicus [15]): <10% | Activity (Rattus norvegicus [17]): 52%

COc1ccc(CC2CCc3cc([C@H]4CC[C@](N)(CO)C4)ccc3C2)cc1 (stereo in doubt; 13b)
concentration at 4 h [16]: 90 nM | Activity (Rattus norvegicus [17]): 73% | concentration at 24 h [18]: 60 nM | half-life [19]: 64 h | Ratio [20]: 1.3 | Drug metabolism (Rattus norvegicus [21]): 50 nM
